Data from patent US4965280A, “Antifungal carbinols” (E. I. Du Pont de Nemours and Company, priority 1989, dated 1990).

Columns and labels:
Assay in all cases: Test E
[1] = system: CMN CHICKWEED; format: in vivo, Stellaria media
[2] = system: JET RAPE; format: in vivo, Brassica napus cv. Jet Neuf
[3] = system: WILD OATS; format: in vivo, Avena fatua
[4] = system: BONANZA BARLEY; format: in vivo, Hordeum vulgare cv. Bonanza
[5] = system: BLACK NIGHTSHAD; format: in vivo, Solanum nigrum
[6] = system: ANN. BLUEGRASS; format: in vivo, PO annua
[7] = system: WILD RADISH; format: in vivo, Raphanus raphanistrum
[8] = system: BLACKGRASS; format: in vivo, Alopercurus mysuroides
Excerpt: Seeds of the following crops and weeds are sown into 15 cm pots containing Sassafras sandy loam soil: wheat (Triticum aestivum cv. Park), barley (Hordeum vulgare cv. Bonanza), sugarbeet (Beta vulgaris cv. USH-11), rapeseed (Brassica napus cv. Jet Neuf), black nightshade (Solanum nigrum), chickweed (Stellaria media), lambsquarter (Chenopodium album), Galium aparine, knotweed (Polygonum aviculare), Kochia scoparia, Matricaria indora, redroot pigweed (Amaranthus retroflexus), smartweed (Polygonum persicaria), speedwell (Veronica persica), wild buckwheat (Polygonum convolvulus), wild mustard (Brassica spp.), wild radish (Raphanus raphanistrum), annual bluegrass (PO annua), annual ryegrass (Lolium multiflorum), blackgrass (Alopercurus mysuroides), green foxtail (Setaria viridis), and wild oats (Avena fatua). Compounds are formulated in a nonphytotoxic solvent and applied to the plants as a foliar spray or applied to the soil surface. Plants are treated at two stages: preemergence, or postemergence when the sugarbeets are at the 2-3 true leaf stage. Plants are grown in a temperature-controlled greenhouse for the duration of the test.
Weed control and crop injury are evaluated visually at 3-4 weeks after compound application, using a scale of 0 to 100%, where 0=no injury and 100=complete death of the plant. All plants are rated with respect to untreated plants (checks) grown in the greenhouse under identical conditions to the treated plants.

[9] = system: PARK WHEAT; format: in vivo, Triticum aestivum cv. Park

SMILES: C=C(c1ccc(Cl)cc1Cl)C(O)(Cn1cncn1)c1ccccc1F (stereo not drawn) [Example 107]
- plant response ([1]; PREEMERGENCE 0250 GM/HA): 0%
- plant response ([2]; PREEMERGENCE 0250 GM/HA): 30%
- plant response ([3]; PREEMERGENCE 0250 GM/HA): 0%
- plant response ([4]; PREEMERGENCE 0250 GM/HA): 80%
- plant response ([5]; PREEMERGENCE 0250 GM/HA): 80%
- plant response ([6]; PREEMERGENCE 0250 GM/HA): 20%
- plant response ([7]; PREEMERGENCE 0250 GM/HA): 60%
- plant response ([8]; PREEMERGENCE 0250 GM/HA): 20%
- plant response ([9]; PREEMERGENCE 0250 GM/HA): 30%

SMILES: C=C(c1ccccc1)C(O)(Cn1cncn1)c1ccc(Cl)cc1 (stereo not drawn) [Example 51, 2-(4-Chlorophenyl)-3-phenyl-1-(1H-1,2,4-triazol-1-yl)-3-buten-2-ol]
- plant response ([1]; POSTEMERGENCE 0064 GM/HA): 0%
- plant response ([1]; POSTEMERGENCE 0125 GM/HA): 0%
- plant response ([1]; POSTEMERGENCE 0250 GM/HA): 0%
- plant response ([1]; POSTEMERGENCE 0500 GM/HA): 0%
- plant response ([1]; PREEMERGENCE 0500 GM/HA): 0%
- plant response ([2]; POSTEMERGENCE 0064 GM/HA): 0%
- plant response ([2]; POSTEMERGENCE 0125 GM/HA): 0%
- plant response ([2]; POSTEMERGENCE 0250 GM/HA): 0%
- plant response ([2]; POSTEMERGENCE 0500 GM/HA): 20%
- plant response ([2]; PREEMERGENCE 0500 GM/HA): 0%
- plant response ([3]; POSTEMERGENCE 0064 GM/HA): 0%
- plant response ([3]; POSTEMERGENCE 0125 GM/HA): 0%
- plant response ([3]; POSTEMERGENCE 0250 GM/HA): 0%
- plant response ([3]; POSTEMERGENCE 0500 GM/HA): 0%
- plant response ([3]; PREEMERGENCE 0500 GM/HA): 20%
- plant response ([4]; POSTEMERGENCE 0064 GM/HA): 0%
- plant response ([4]; POSTEMERGENCE 0125 GM/HA): 0%
- plant response ([4]; POSTEMERGENCE 0250 GM/HA): 0%
- plant response ([4]; POSTEMERGENCE 0500 GM/HA): 0%
- plant response ([4]; PREEMERGENCE 0500 GM/HA): 30%
- plant response ([5]; POSTEMERGENCE 0064 GM/HA): 0%
- plant response ([5]; POSTEMERGENCE 0125 GM/HA): 0%
- plant response ([5]; POSTEMERGENCE 0250 GM/HA): 40%
- plant response ([5]; POSTEMERGENCE 0500 GM/HA): 60%
- plant response ([5]; PREEMERGENCE 0500 GM/HA): 100%
- plant response ([6]; POSTEMERGENCE 0064 GM/HA): 0%
- plant response ([6]; POSTEMERGENCE 0125 GM/HA): 0%
- plant response ([6]; POSTEMERGENCE 0250 GM/HA): 20%
- plant response ([6]; POSTEMERGENCE 0500 GM/HA): 50%
- plant response ([6]; PREEMERGENCE 0500 GM/HA): 20%
- plant response ([7]; POSTEMERGENCE 0064 GM/HA): 0%
- plant response ([7]; POSTEMERGENCE 0125 GM/HA): 30%
- plant response ([7]; POSTEMERGENCE 0250 GM/HA): 30%
- plant response ([7]; POSTEMERGENCE 0500 GM/HA): 60%
- plant response ([7]; PREEMERGENCE 0500 GM/HA): 0%
- plant response ([8]; POSTEMERGENCE 0064 GM/HA): 0%
- plant response ([8]; POSTEMERGENCE 0125 GM/HA): 0%
- plant response ([8]; POSTEMERGENCE 0250 GM/HA): 0%
- plant response ([8]; POSTEMERGENCE 0500 GM/HA): 0%
- plant response ([8]; PREEMERGENCE 0500 GM/HA): 0%
- plant response ([9]; POSTEMERGENCE 0064 GM/HA): 0%
- plant response ([9]; POSTEMERGENCE 0125 GM/HA): 0%
- plant response ([9]; POSTEMERGENCE 0250 GM/HA): 0%
- plant response ([9]; POSTEMERGENCE 0500 GM/HA): 0%
- plant response ([9]; PREEMERGENCE 0500 GM/HA): 0%
